Measurements from patent US9453016B2, “Terpenoid spiro ketal compounds with LXR agonists activity, their use and formulations with them” (priority 2010, dated 2016).

Key:
liver cancer cell lines = details: cited from earlier work
LXRα = LXRα (Homo sapiens, UniProt Q13133); assay: LXR HTR-FRET coactivator (b-SRC1) recruitment assay, LXRα; type: biochemical; details: FRET 12-point dose response, GST-LXR LBD
Description: (§1) The LXR assay is configured using time-resolved fluorescence resonance energy transfer technology (HTR-FRET) (see Albers et al., J. Biol. Chem. 2006 24; 281(8) 4920-30; Chin J, Assay Drug Dev. Technol. 2003 1(6):777-87).
(§2) In the presence of an agonist, a fusion protein of glutathione S-transferase (GST) and LXR ligand binding domain (GST-LXR LBD) associates with a biotin-labeled nuclear receptor coactivator (b-SRC1). A fluorescent signal is detected in the presence of Eu-labeled anti GST antibodies and streptavidin-labeled allophycocyanin (APC). FRET is made possible by agonist-dependent close interaction of the test proteins.
(§3) Compounds which act as agonists at the LXR ligand binding domain were detected by an increase in time-resolved fluorescence. This LXR-FRET was performed as described by Albers et al. (loc. cit.).
(§4) FRET-active compounds were assayed in a FRET 12-point dose response experiment to determine the EC50—values of the compounds mentioned in the following Table 5.

LXRβ = LXRβ (Homo sapiens, UniProt P55055); assay: LXR HTR-FRET coactivator (b-SRC1) recruitment assay, LXRβ; type: biochemical; details: FRET 12-point dose response, GST-LXR LBD
LXRβ, sequence (P55055 222-460 limits assumed): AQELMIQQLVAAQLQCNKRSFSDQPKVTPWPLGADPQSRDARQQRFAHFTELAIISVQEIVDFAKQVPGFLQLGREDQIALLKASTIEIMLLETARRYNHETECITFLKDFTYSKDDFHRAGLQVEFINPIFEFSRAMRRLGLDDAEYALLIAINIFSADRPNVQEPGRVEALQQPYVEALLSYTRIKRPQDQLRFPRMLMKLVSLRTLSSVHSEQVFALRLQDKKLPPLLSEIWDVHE
LXRβ, sequence (Q15788 whole entry partner, the tested form may be a part): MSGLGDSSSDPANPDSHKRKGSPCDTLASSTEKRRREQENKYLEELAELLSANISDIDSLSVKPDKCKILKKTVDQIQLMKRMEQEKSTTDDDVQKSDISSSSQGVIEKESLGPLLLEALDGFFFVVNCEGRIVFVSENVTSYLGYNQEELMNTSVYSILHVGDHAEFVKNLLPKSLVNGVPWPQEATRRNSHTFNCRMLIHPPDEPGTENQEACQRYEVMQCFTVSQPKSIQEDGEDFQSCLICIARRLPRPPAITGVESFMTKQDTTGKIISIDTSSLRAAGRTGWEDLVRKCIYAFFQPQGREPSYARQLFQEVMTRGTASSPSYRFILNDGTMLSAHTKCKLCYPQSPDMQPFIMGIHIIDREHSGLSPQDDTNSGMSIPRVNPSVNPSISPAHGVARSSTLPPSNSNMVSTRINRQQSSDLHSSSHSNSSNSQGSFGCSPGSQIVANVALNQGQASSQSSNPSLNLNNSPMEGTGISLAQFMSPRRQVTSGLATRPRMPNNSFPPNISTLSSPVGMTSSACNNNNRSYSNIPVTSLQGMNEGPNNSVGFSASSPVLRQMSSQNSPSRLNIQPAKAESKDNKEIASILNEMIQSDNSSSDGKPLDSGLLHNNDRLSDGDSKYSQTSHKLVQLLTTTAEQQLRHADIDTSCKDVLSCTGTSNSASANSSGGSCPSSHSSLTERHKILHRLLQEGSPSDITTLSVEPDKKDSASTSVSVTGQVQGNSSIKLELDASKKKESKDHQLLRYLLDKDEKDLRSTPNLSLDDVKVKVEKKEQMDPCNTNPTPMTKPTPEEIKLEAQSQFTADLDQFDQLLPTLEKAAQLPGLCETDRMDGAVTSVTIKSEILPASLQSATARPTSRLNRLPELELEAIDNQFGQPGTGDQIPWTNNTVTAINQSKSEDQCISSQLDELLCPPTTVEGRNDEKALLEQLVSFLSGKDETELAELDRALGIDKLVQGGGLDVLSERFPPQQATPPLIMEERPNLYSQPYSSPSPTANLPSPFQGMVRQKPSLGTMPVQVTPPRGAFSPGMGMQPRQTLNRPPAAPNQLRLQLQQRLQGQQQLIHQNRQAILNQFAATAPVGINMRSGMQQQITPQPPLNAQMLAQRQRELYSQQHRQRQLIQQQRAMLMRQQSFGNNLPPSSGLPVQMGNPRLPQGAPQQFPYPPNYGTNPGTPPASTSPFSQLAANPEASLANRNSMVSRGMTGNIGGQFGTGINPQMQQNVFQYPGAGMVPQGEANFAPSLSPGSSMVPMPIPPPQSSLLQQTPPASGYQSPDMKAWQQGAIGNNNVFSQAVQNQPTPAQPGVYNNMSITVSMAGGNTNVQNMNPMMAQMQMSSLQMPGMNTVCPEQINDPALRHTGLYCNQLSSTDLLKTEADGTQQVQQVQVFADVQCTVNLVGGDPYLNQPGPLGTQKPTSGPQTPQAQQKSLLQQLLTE
Description: as §1, §2, §3, §4

lung cancer cells = details: cited from earlier work
[1] = test system: female APOE*3-Leiden(E3L).CETP transgenic mice; assay: Pooled lipoprotein profiles (FPLC) in APOE*3Leiden.CETP mice; type: in vivo; details: after 5 weeks of treatment, pooled plasma per group
[2] = test system: female APOE*3-Leiden(E3L).CETP transgenic mice; assay: Plasma lipids in APOE*3Leiden.CETP transgenic mice on Western-type diet; type: in vivo; details: for Plasma cholesterol: mean ± SD of 10 mice
Description: The aim of the study was to evaluate the effects of extract IMD-XT0022 (see example 1c) on plasma lipids in female APOE*3-Leiden(E3L).CETP transgenic mice (hereinafter referred to as APOE*3Leiden mice). The effects were compared with phytosterol as a positive control.
Forty female APOE*3Leiden mice (from the specific pathogen free breeding stock at TNO-Metabolic Health Research, Leiden, Netherlands), 15-16 weeks of age at the start of the experiment were housed during the experiment in Macrolon® cages (maximally 5 animals per cage) in clean-conventional animal rooms (relative humidity 50-60%, temperature about 21° C., light cycle 7 am to 7 pm). Individual mice were marked by ear-punch holes and supplied with food and acidified tap water ad libitum. Dietary ingredients were provided by Hope Farms (Woerden, the Netherlands): The mice received a semi-synthetic modified Western-type diet (WTD) as described by Nishina et al., J. Lipid. Res. 1990:31:859, containing cholesterol (0.1% w/w, final concentration) and saturated fat (15% w/w cacao butter). The animals were put on a Western-type diet with 0.1% cholesterol for 4 weeks (run-in period). After the run-in period, APOE*3Leiden mice were sub-divided into three groups of 10 mice each and treated during 5 weeks with the following compounds: Control group (vehicle gavage, Western-type diet without diet additions), extract group (Western-type diet without diet additions, 100 mg/kg/d extract IMD-XT0022 via daily gavage) or phytosterol group (vehicle gavage, Western-type diet with addition of 1 wt. % of free phytosterol). One week before first administration of IMD-XT0022 mice were gavaged with vehicle to get used to the procedure. Food intake and body weight were measured weekly during the treatment period (t=0, 1, 2, 3, 4 and 5 weeks). After two and five weeks of treatment blood samples were taken after a 4 hour fasting period. After 3 weeks of treatment vehicle Delios V oil (a medium-chain triglyceride oil obtained from BASF Personal Care and Nutrition GmbH, Düsseldorf, Germany) was replaced by Polyethylengycol-400 (PEG-400, Sigma-Aldrich, Steinheim, Germany) for all groups.
Extract IMD-XT0022 was administered daily by oral gavage between 8.00 and 11.00 am CET. In the phytosterol group phytosterol was administered orally as admix to the WTD (1% w/w free phytosterol). The control group and the phytosterol group received the vehicle accordingly. The gavage volume during the treatment period was 10 ml/kg and was adjusted weekly based on the measured body weight of the respective week.
Plasma cholesterol, triglycerides and HDL cholesterol were measured individually at t=0, 2 and 5 weeks. On group level ALT, AST levels and lipoprotein profiles (at t=0 and 5 weeks) were measured. Feces were collected (per cage) during week 5.
On the mornings of the blood sampling time points of t=weeks 2 and t=5 weeks, gavages were not performed between 8.00-11.00 am, but were performed after the blood sampling. At t=5 weeks, 3 days after the last blood sampling, mice were sacrificed after a 4 hour fasting period (and without giving a gavage on the day of sacrifice) by CO2 suffocation. EDTA-plasma was collected via heart puncture and stored at <−70° C. and several organs were collected.
After a 4 weeks run-in period, 10 low-responder mice were removed from the study. The remaining 30 mice where subdivided into 3 groups of 10 mice each, matched for body weight, plasma cholesterol, triglycerides, HDL-cholesterol and age (t=0) […]

LXRα, sequence (Q13133 209-447 limits assumed): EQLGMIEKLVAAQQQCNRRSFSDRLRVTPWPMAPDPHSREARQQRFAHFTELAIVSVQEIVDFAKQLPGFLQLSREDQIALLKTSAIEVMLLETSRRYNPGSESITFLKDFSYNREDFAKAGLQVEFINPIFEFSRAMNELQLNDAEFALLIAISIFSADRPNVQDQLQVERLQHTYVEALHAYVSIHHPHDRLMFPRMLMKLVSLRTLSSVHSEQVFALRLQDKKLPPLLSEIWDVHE
LXRα, sequence (Q15788 whole entry partner, the tested form may be a part): as the sequence (Q15788 whole entry partner, the tested form may be a part) above

COc1ccc2c(c1C)C=C[C@]1(C)[C@@H]3CC[C@]21O[C@@]1(OC(C)(C)[C@@H](C)[C@H]1O)[C@H]3C [Compound 1, (2S,3S,3′R,4R,4′S,4aR,10bR)-4,4′,4a,5′-Tetrahydro-8-methoxy-3,4′,4a,5′,5′,7-hexamethyl-spiro[4,10b-ethano-10bH-naphtho[1,2-b]pyran-2(3H),2′(3′H)-furan]-3′-ol]
Biological activities against liver cancer cell lines (liver cancer cell lines): confirmed the biological activities | EC50 (LXRα): 1.4 µM | EC50 (LXRβ): 25 µM

Cc1c(O)ccc2c1C=C[C@]1(C)[C@@H]3CC[C@]21O[C@@]1(OC(C)(C)[C@@H](C)[C@H]1O)[C@H]3C [Compound 2, (2S,3S,3′R,4R,4′S,4aR,10bR)-4,4′,4a,5′-tetrahydro-3,4′,4a,5′,5′,7-hexamethyl-spiro[4,10b-ethano-10bH-naphtho[1,2-b]pyran-2(3H),2′(3′H)-furan]-3′,8-diol]
EC50 (LXRα): 1.1 µM | EC50 (LXRβ): 5.5 µM

COc1ccc2c(c1CO)C=C[C@]1(C)[C@@H]3CC[C@]21O[C@@]1(OC(C)(C)[C@@H](C)[C@H]1O)[C@H]3C [Compound 3, (2S,3S,3′R,4R,4′S,4aR,10bR)-4,4′,4a,5′-Tetrahydro-3′-hydroxy-8-methoxy-3,4′,4a,5′,5′-pentamethyl-spiro[4,10b-ethano-10bH-naphtho[1,2-b]pyran-2(3H),2′(3′H)-furan]-7-methanol]
EC50 (LXRα): 11 µM | EC50 (LXRβ): 24 µM

C[C@H]1[C@@H](O)[C@]2(OC1(C)C)O[C@]13CC[C@H]([C@@H]2C)[C@@]1(C)CC=C1C3=CC(=O)C2=CC(=O)CC[C@@]21C [Compound 5, (14β,22S,23R)-14,22:22,25-Diepoxy-23-hydroxy-ergosta-4,7,9-triene-3,6-dione]
EC50 (LXRα): 7.6 µM | EC50 (LXRβ): 24 µM

C[C@H]1[C@H](O)[C@@]2(OC1(C)C)O[C@]13CC[C@H]([C@@H]2C)[C@@]1(C)C=CC1=C3C=CC2=CC(=O)CC[C@@]21C [Compound 6, (14β,22S,23S)-14,22:22,25-Diepoxy-23-hydroxy-ergosta-4,6,8,11-tetraen-3-one]
EC50 (LXRα): 5.5 µM | EC50 (LXRβ): 14 µM

COc1ccc2c(c1C)C=C[C@@]1(C)[C@]23CC[C@]1(O)[C@H](C)[C@]1(OC(C)(C)[C@@H](C)[C@H]1O)O3 [Compound 7, (2S,3S,3′R,4R,4′S,4aR,10bR)-4,4′,4a,5′-Tetrahydro-17-hydroxy-8-methoxy-3,4′,4a,5′,5′,7-hexamethyl-spiro[4,10b-ethano-10bH-naphtho[1,2-b]pyran-2(3H),2′(3′H)-furan]-3′-ol]
EC50 (LXRα): 31 µM | EC50 (LXRβ): 34 µM

COc1ccc2c(c1C)CC(=O)[C@]1(C)[C@@H]3CC[C@]21O[C@@]1(OC(C)(C)[C@@H](C)[C@H]1O)[C@H]3C [Compound 8, (2S,3S,3′R,4R,4aR,4′S,10bS)-3′-hydroxy-8-methoxy-3,4a,4′,5′,5′,7-hexamethyl-4,4a,4′,5′-tetrahydro-3H,3′H-spiro[4,10b-ethanobenzo[h]chromene-2,2′-furan]-5(6H)-one]
EC50 (LXRα): 24 µM | EC50 (LXRβ): 31 µM

C[C@H]1[C@@H](O)[C@@]2(OC1(C)C)O[C@]13CC[C@H]([C@@H]2C)[C@@]1(C)[C@H](O)C=C1C3=CC(=O)C2=CC(=O)CC[C@@]21C [Compound 9, (1R,2S,2′S,3′R,4aS,4′S,10aR,12R,12aS)-3′,12-dihydroxy-2,4′,5′,5′,10a,12a-hexamethyl-4′,5′,10,10a,12,12a-hexahydro-1H,3′H-spiro[1,4a-ethanonaphtho[1,2-h]chromene-3,2′-furan]-6,8(2H,9H)-dione]
EC50 (LXRα): 1 µM | EC50 (LXRβ): 4.6 µM

COc1ccc2c(c1C)CC[C@]1(C)[C@@H]3CC[C@]21O[C@@]1(OC(C)(C)[C@@H](C)[C@H]1O)[C@H]3C [Compound 14, (2S,3S,3′R,4R,4aR,4′S,10bR)-8-methoxy-3,4a,4′,5′,5′,7-hexamethyl-4,4a,4′,5,5′,6-hexahydro-3H,3′H-spiro[4,10b-ethanobenzo[h]chromene-2,2′-furan]-3′-ol]
Biological activities against liver cancer cell lines (liver cancer cell lines): confirmed the biological activities

CO[C@@H]1C=C2C3CC[C@H](C(C)/C=C/C(C)C(C)C)[C@@]3(C)CC[C@@H]2[C@@]2(C)CC[C@H](O)C[C@]12O (stereo partly drawn) [blazein]
Apoptosis in lung cancer cells (lung cancer cells): induced apoptosis

phytosterol
Decrease in the area under the curve of the VLDL peak, cholesterol [1]: 25% | Decrease in the area under the curve of the VLDL peak, phospholipid [1]: 21% | Decrease of plasma cholesterol as compared to the control group ([2]; after 5 weeks of treatment): 16% | Decrease of plasma triglycerides as compared to the control group ([2]; after 5 weeks of treatment): 36% | Plasma HDL, effect as compared to the control group ([2]; mouse, in vivo): not affected | Plasma cholesterol ([2]; t = 0 weeks (after run-in, before treatment)): 10.9 ± 1.6 mM | Plasma cholesterol ([2]; t = 2 weeks of treatment, extract 100 mg/kg/d gavage, phytosterol 1 wt.% in diet): 9.4 ± 1.3 mM | Plasma cholesterol ([2]; t = 5 weeks of treatment, extract 100 mg/kg/d gavage, phytosterol 1 wt.% in diet): 8.1 ± 1.8 mM
